Experimental findings from US6610684B2, “Fused azepinone cyclin dependent kinase inhibitors” (The United States of America as represented by the …, priority 1998, dated 2003) are described below.

Read-outs that look alike come from different tables or passages of the source.

A short description of data set [1]: Plasma pharmacokinetics after single i.v. dose. The class given is in vivo, Sprague Dawley rats. The conditions noted are these: Sprague-Dawley, iv, rat.

For orientation: melting point means the temperature, or range, at which the solid turns liquid. As to `COc1cc2c(cc1OC)-c1[nH]c3ccc(C#N)cc3c1CC(=O)N2` [2,3-dimethoxy, 9-cyano, 2,3-dimethoxy-6-oxo-5,6,7,12-tetrahydro-indolo[3,2-d][1]benzazepine-9-carbonitrile], the melting point was above 330 °C.
Still for that read-out and setting: under `COc1cc2c(cc1OC)-c1[nH]c3ccc([N+](=O)[O-])cc3c1CC(=O)N2` [2,3-dimethoxy, 9-nitro, 2,3-dimethoxy-9-nitro-7,12-dihydro-indolo[3,2-d][1]benzazepin-6(5H)-one] stands above 330 °C; under `O=C1Cc2c([nH]c3ccc([N+](=O)[O-])cc23)-c2cc(Br)ccc2N1` [2-Br,9-nitro, 2-bromo-9-nitro-7,12-dihydro-indolo[3,2-d][1]benzazepin-6(5H)-one], above 330 °C.
With `O=C1Cc2c([nH]c3ccc(C(F)(F)F)cc23)-c2cc(C#CC3(O)CCCCC3)ccc2N1` [2-[2-(1-hydroxycyclohexyl)-ethinyl]-9-trifluoromethyl-7,12-dihydro-indolo[3,2-d][1]-benzazepin-6(5H)-one], the melting point was above 330 °C.
Same read-out and setting: under `COOC/C=C/c1ccc2c(c1)-c1[nH]c3ccc(C(F)(F)F)cc3c1CC(=O)N2` [3-(6-oxo-9-trifluoromethyl-5,6,7,12-tetrahydro-indolo[3,2d][1]benzazepin-2-yl)-acrylic acid methyl ester] stands above 330 °C.
Consider `S=C1Cc2c([nH]c3ccc(Br)cc23)-c2ccccc2N1` [6 = S, 9-Br, 9-bromo-7,12-dihydro-indolo[3,2-d][1]benzazepine-6(5H) -thione], for which the melting point is above 330 °C.
With `O=C1Cc2c([nH]c3ccccc23)-c2cc(Br)ccc2N1` [Example 2-Br, 2-bromo-7,12-dihydro-indolo[3,2-d][1]benzazepin-6(5H)-one], the melting point was above 330 °C.
The same measure, in the same setting: under `COc1ccc2[nH]c3c(c2c1)CC(=O)Nc1ccccc1-3` [Example 9-OCH3, 7,12-dihydro-9-methoxy-indolo[3,2-d][1]benzazepin-6(5H)-one] stands above 330 °C.
In general, clearance refers to a measure of how efficiently the substance is removed, as volume per time. A low value points to inefficient removal. By half-life is commonly meant the time needed for the level to fall by half in the phase considered. On to `O=C1Cc2c([nH]c3ccc([N+](=O)[O-])cc23)-c2ccccc2N1` [Example 9-nitro, 9-nitro-7,12-dihydro-indolo[3,2-d][1]benzazepin-6(5H)-one], for which the clearance in data set [1] (single i.v. 5 mg/kg in DMSO) is 16 mL/min/kg; in data set [1] (single i.v. 10 mg/kg in DMSO), 14 mL/min/kg. Moreover, the half-life came to 46 min in data set [1] (single i.v. 5 mg/kg in DMSO, read-out: half life in the plasma) and 66 min in data set [1] (single i.v. 10 mg/kg in DMSO, read-out: half life in plasma).
In the case of `O=C1Cc2c([nH]c3ccc(Br)cc23)-c2cc(C[C@@H]3CO3)ccc2N1` [Example 34], the melting point is 308 to 310 °C (dec.).
